In ChEMBL document CHEMBL6120946, “From Hit to Lead: Discovery of First-In-Class Furanone Glycoside D228 Derived from Chimonanthus salicifolius for the Treatment of Inflammatory Bowel Disease” (J Med Chem, 2024):
Activity calls are given as the source filed them. The calls are words filed in the database; no cut-off is given here.

What was measured:
[1] = Toxicity in male Kunming mouse assessed as effect on lung at 100 to 500 mg/kg/day, po measured after 5 weeks by H and E staining based analysis; format: organism-based; settings: in vivo, 840 h, dose 100-500 mg/kg/day
[2] = Acute toxicity in female Kunming mouse assessed as effect on heart 5 g/Kg, po measured after 5 weeks; format: organism-based; settings: in vivo, 5000 mg/kg, 840 h
[3] = tested on: Mus musculus; experiment: Antiinflammatory activity in male C57BL/6 mouse model of inflammatory bowel disease assessed as recovery of DSS-induced body weight loss at 40 mg/kg/day, po via gavage measured after 14 days relative to control; format: functional; settings: time 14 day
[4] = Toxicity in female Kunming mouse assessed as effect on kidney to body weight ratio at 100 to 500 mg/kg/day, po measured after 5 weeks; format: organism-based; settings: in vivo, 840 h, dose 100-500 mg/kg/day
[5] = tested on: Mus musculus; experiment: Antiinflammatory activity in DSS-induced male C57BL/6 mouse model of inflammatory bowel disease assessed as reduction of bloody stool at 22.5 to 45 mg/kg/day, po via gavage measured upto 14 days; format: functional, organism-based; settings: dose 22.5-45 mg/kg/day, time <= 14.0 day
[6] = Toxicity in female Kunming mouse assessed as effect on CREA level in serum at 100 to 500 mg/kg/day, po measured after 5 weeks; format: organism-based; settings: in vivo, 840 h, dose 100-500 mg/kg/day
[7] = Toxicity in female Kunming mouse assessed as effect on BUN level in serum at 100 to 500 mg/kg/day, po measured after 5 weeks; format: organism-based; settings: in vivo, 840 h, dose 100-500 mg/kg/day
[8] = Toxicity in female Kunming mouse assessed as effect on ALP level in serum at 100 to 500 mg/kg/day, po measured after 5 weeks; format: organism-based; settings: in vivo, 840 h, dose 100-500 mg/kg/day
[9] = Toxicity in female Kunming mouse assessed as effect on TP level in serum at 100 to 500 mg/kg/day, po measured after 5 weeks; format: organism-based; settings: in vivo, 840 h, dose 100-500 mg/kg/day
[10] = Toxicity in female Kunming mouse assessed as effect on TBIL level in serum at 100 to 500 mg/kg/day, po measured after 5 weeks; format: organism-based; settings: in vivo, 840 h, dose 100-500 mg/kg/day
[11] = Toxicity in male Kunming mouse assessed as effect on CK level in serum at 100 to 500 mg/kg/day, po measured after 5 weeks; format: organism-based; settings: in vivo, 840 h, dose 100-500 mg/kg/day
[12] = tested on: Mus musculus; experiment: Antiinflammatory activity in DSS-induced male C57BL/6 mouse model of inflammatory bowel disease assessed as upregulation of ZO-1 expression in colon at 50 to 100 microM/Kg by immunohistochemical analysis; format: functional, organism-based; settings: dose 50-100 µM/Kg
[13] = Toxicity in male Kunming mouse assessed as effect on ALP level in serum at 100 to 500 mg/kg/day, po measured after 5 weeks; format: organism-based; settings: in vivo, 840 h, dose 100-500 mg/kg/day
[14] = tested on: Mus musculus; experiment: Antiinflammatory activity in DSS-induced male C57BL/6 mouse model of inflammatory bowel disease assessed as reduction in weight loss at 22.5 to 45 mg/kg/day, po via gavage measured upto 14 days; format: functional, organism-based; settings: dose 22.5-45 mg/kg/day, time <= 14.0 day
[15] = Toxicity in female Kunming mouse assessed as change in food intake at 100 to 500 mg/kg/day, po measured after 5 weeks; format: organism-based; settings: in vivo, 840 h, dose 100-500 mg/kg/day
[16] = Toxicity in female Kunming mouse assessed as effect on ABL level in serum at 100 to 500 mg/kg/day, po measured after 5 weeks; format: organism-based; settings: in vivo, 840 h, dose 100-500 mg/kg/day
[17] = Toxicity in male Kunming mouse assessed as effect on CREA level in serum at 100 to 500 mg/kg/day, po measured after 5 weeks; format: organism-based; settings: in vivo, 840 h, dose 100-500 mg/kg/day
[18] = tested on: Mus musculus; experiment: Antiinflammatory activity in DSS-induced male C57BL/6 mouse model assessed as increase in IL-10 level in colon at 50 to 100 microM/Kg; format: functional, organism-based; settings: dose 50-100 µM/Kg
[19] = Toxicity in male Kunming mouse assessed as effect on lung to body weight ratio at 100 to 500 mg/kg/day, po measured after 5 weeks; format: organism-based; settings: in vivo, 840 h, dose 100-500 mg/kg/day
[20] = tested on: Mus musculus; experiment: Antiinflammatory activity in DSS-induced male C57BL/6 mouse model assessed as effect on JNK phosphorylation level at 50 to 100 microM/Kg by Western blot analysis; format: functional, organism-based; settings: dose 50-100 µM/Kg
[21] = Toxicity in male Kunming mouse assessed as effect on liver to body weight ratio at 100 to 500 mg/kg/day, po measured after 5 weeks; format: organism-based; settings: in vivo, 840 h, dose 100-500 mg/kg/day
[22] = Toxicity in male Kunming mouse assessed as effect on TBIL level in serum at 100 to 500 mg/kg/day, po measured after 5 weeks; format: organism-based; settings: in vivo, 840 h, dose 100-500 mg/kg/day
[23] = Acute toxicity in male Kunming mouse assessed as effect on body weight loss 5 g/Kg, po measured after 5 weeks; format: organism-based; settings: in vivo, 5000 mg/kg, 840 h
[24] = Genotoxicity in erythrocyte (unknown origin) by Erythrocyte micronucleus test; format: toxicity, cell-based
[25] = Toxicity in female Kunming mouse assessed as effect on GGT level in serum at 100 to 500 mg/kg/day, po measured after 5 weeks; format: organism-based; settings: in vivo, 840 h, dose 100-500 mg/kg/day
[26] = tested on: Mus musculus; experiment: Antiinflammatory activity in DSS-induced male C57BL/6 mouse model assessed as inhibition of IL-17A level in colon at 50 to 100 microM/Kg; format: functional, organism-based; settings: dose 50-100 µM/Kg
[27] = Acute toxicity in female Kunming mouse assessed as effect on body weight loss 5 g/Kg, po measured after 5 weeks; format: organism-based; settings: in vivo, 5000 mg/kg, 840 h
[28] = Toxicity in male Kunming mouse assessed as effect on GGT level in serum at 100 to 500 mg/kg/day, po measured after 5 weeks; format: organism-based; settings: in vivo, 840 h, dose 100-500 mg/kg/day
[29] = tested on: Mus musculus; experiment: Antiinflammatory activity in DSS-induced male C57BL/6 mouse model of inflammatory bowel disease assessed as increase in colon length at 15 mg/kg/day, po via gavage measured upto 14 days relative to control; format: functional; settings: time <= 14 day
[30] = organism: Mus musculus; experiment: Antiinflammatory activity in DSS-induced male C57BL/6 mouse model of inflammatory bowel disease assessed as reduction in p38 level; format: functional, organism-based
[31] = tested on: Mus musculus; experiment: Antiinflammatory activity in DSS-induced male C57BL/6 mouse model of inflammatory bowel disease assessed as increase in colon length at 40 mg/kg/day, ip measured after 14 days relative to control; format: functional; settings: time 14 day
[32] = organism: Mus musculus; experiment: Antiinflammatory activity in DSS-induced male C57BL/6 mouse model of inflammatory bowel disease assessed as reduction in IRF5 level; format: functional, organism-based
[33] = tested on: Mus musculus; experiment: Antiinflammatory activity in DSS-induced male C57BL/6 mouse model assessed as inhibition of TNF-alpha level in colon at 50 to 200 microM/Kg; format: functional, organism-based; settings: dose 50-200 µM/Kg
[34] = organism: Mus musculus; experiment: Antiinflammatory activity in DSS-induced male C57BL/6 mouse model of inflammatory bowel disease assessed as reduction in MYD88 level; format: functional, organism-based
[35] = organism: Mus musculus; experiment: Antiinflammatory activity in DSS-induced male C57BL/6 mouse model of inflammatory bowel disease assessed as reduction in TLR4 level; format: functional, organism-based
[36] = tested on: Mus musculus; experiment: Antiinflammatory activity in DSS-induced male C57BL/6 mouse model assessed as effect on JNK phosphorylation level at 50 to 200 microM/Kg by Western blot analysis; format: functional, organism-based; settings: dose 50-200 µM/Kg
[37] = tested on: Mus musculus; experiment: Antiinflammatory activity in DSS-induced male C57BL/6 mouse model of inflammatory bowel disease assessed as recovery from body weight loss at 10 mg/kg/day, ip measured after 14 days relative to control; format: functional; settings: time 14 day
[38] = tested on: Mus musculus; experiment: Antiinflammatory activity in DSS-induced male C57BL/6 mouse model of inflammatory bowel disease assessed as downregulation of MyD88 expression at 50 to 200 microM/Kg by Western blot analysis; format: functional, organism-based; settings: dose 50-200 µM/Kg
[39] = tested on: Mus musculus; experiment: Antiinflammatory activity in DSS-induced male C57BL/6 mouse model assessed as inhibition of IL-17A level in colon at 50 to 200 microM/Kg; format: functional, organism-based; settings: dose 50-200 µM/Kg

CC(=O)OC[C@H]1O[C@@H](OC2=C(C)OC(=C(C)C)C2=O)[C@H](OC(C)=O)[C@@H](OC(C)=O)[C@@H]1OC(C)=O
Activity [1]: Non-toxic
Activity [2]: Non-toxic
Activity [3]: 49.1%
Activity [4]: Non-toxic
Activity [5]: Active
Activity [6]: Non-toxic
Activity [7]: Non-toxic
Activity [8]: Non-toxic
Activity [9]: Non-toxic
Activity [10]: Non-toxic
Activity [11]: Non-toxic
Activity [12]: Active
Activity [13]: Non-toxic
Activity [14]: Active
Activity [15]: Non-toxic
Activity [16]: Non-toxic
Activity [17]: Non-toxic
Activity [18]: Active
Activity [19]: Non-toxic
Activity [20]: inactive
Activity [21]: Non-toxic
Activity [22]: Non-toxic
Activity [23]: Non-toxic
Activity [24]: Non-toxic
Activity [25]: Non-toxic
Activity [26]: Active
Activity [27]: Non-toxic
Activity [28]: Non-toxic

CC(C)=C1OC(C)=C(O[C@@H]2O[C@H](CO)[C@@H](O)[C@H](O)[C@H]2O)C1=O
Activity [29]: 79.1%
Activity [30]: Active
Activity [31]: 69.4%
Activity [32]: Active
Activity [33]: Active
Activity [34]: Active
Activity [35]: Active
Activity [36]: inactive
Activity [37]: 37.5%
Activity [38]: Active
Activity [39]: Active
